# According to patent US20210330611A1, “THERAPY FOR NEUROLOGICAL DISEASES/DISORDERS” (priority 2020, published 2021):
# Several values for one entry are separate records, joined by “and”; a condition that tells them apart may be missing. Identical values can stand only once. Counter-ions that a name gives are not always drawn. Like-named read-outs stand apart in the source and are kept apart here.
# Tests used:
# [1] = system: fibrin- and LPS-induced microglia activation; assay: cells; assay type: cell-based, rat
# [2] = system: primary rat microglia
# [3] = system: primary rat microglia; assay: Cell toxicity (dead cells, size <150 μm2) in coated fibrin (cFib) assay; details: primary microglia HTS;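 also: share of dead cells sized under 150 µm2 at 10 µM in fibrin-stimulated microglia HTS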
# [4] = system: LPS-induced microglia activation; assay: Image-based assay of LPS-induced microglia activation (HTS and dose response); assay type: cell-based, rat; details: for inhibition at 10 µM: Rattus norvegicus, Microglia, read-out: LPS % inhibition
# [5] = system: fibrin-induced microglia activation; assay: Image-based assay of fibrin-induced microglia activation (HTS and dose response); assay type: cell-based, rat; details: primary microglia HTS, fibrin stimulation; for inhibition at 10 µM: Rattus norvegicus, Microglia, read-out: Fibrin % inhibition
# [6] = classification by fibrin and LPS inhibition in HTS
# [7] = fibrin stimulation, cell size <150 μm2 as marker of toxicity
# [8] = cell size >800 μm2 as marker of activation
# [9] = classification by fibrin and LPS inhibition, HTS at 10 μM
# [10] = fibrin assay, dead cells (size <150 μm2), compounds at 10 μM
# [11] = primary microglia HTS, LPS stimulation, compounds at 10 μM, 10 µM
# [12] = primary microglia HTS, LPS stimulation, compounds at 10 μM
# [13] = quadrant by fibrin and LPS inhibition, HTS at 10 μM
# [14] = fibrin assay, dead cells (size <150 μm2)
Compound,"Quadrant (FIG. 5b) [1, 6]",LPS % cell toxicity ([2]; rat) [%],"Fibrin % cell toxicity [3, 7] [%]",inhibition at 10 µM ([4]; 48 h) [%],"inhibition at 10 µM [5, 8] [%]","Quadrant (FIG. 5b) [1, 9]","Fibrin % cell toxicity [3, 10] [%]","inhibition at 10 µM [4, 12] [%]",inhibition at 10 µM ([5]; compounds at 10 μM) [%],other results
CC[C@H]1OC(=O)[C@H](C)[C@@H](O[C@H]2C[C@@](C)(OC)[C@@H](O)[C@H](C)O2)[C@H](C)[C@@H](O[C@@H]2O[C@H](C)C[C@H](N(C)C)[C@H]2O)[C@](C)(O)C[C@@H](C)/C(=N\OCOCCOC)[C@H](C)[C@@H](O)[C@]1(C)O [Roxithromycin],Q4,1,0,17,-4,–,–,–,–,–
CC(=O)OC/C=C(C)/C=C/C=C(C)/C=C/C1=C(C)CCCC1(C)C [Retinyl Acetate],Q4,0,1,15,3,–,–,–,–,–
CN1C[C@H](C(=O)N[C@]2(C)O[C@@]3(O)[C@@H]4CCCN4C(=O)[C@H](Cc4ccccc4)N3C2=O)C=C2c3cccc4[nH]cc(c34)C[C@H]21 [Ergotamine],–,0,–,–,–,Q4,1,–,–,"LPS % inhibition [4, 11]: −4%; Fibrin % inhibition ([5]; compounds at 10 μM, 10 µM): 6%"
OCc1ccccn1 [Piconol],Q4,1,1,26,-1,–,–,–,–,–
CC1CC(OC(=O)C(O)c2ccccc2)CC(C)(C)N1C (stereo not drawn) [Eucatropine Hydrochloride],–,0,–,–,–,Q4,1,24,1,–
NC(=O)CN1CCCC1=O [Piracetam],Q4,0,0,9,-21,–,–,–,–,–
CCOc1cc(CC(=O)N[C@@H](CC(C)C)c2ccccc2N2CCCCC2)ccc1C(=O)O [Repaglinide],Q4,0,1,18,-14,–,–,–,–,–
CCN(CC)CCOC(=O)C(c1ccccc1)c1ccccc1 [Adiphenine Hydrochloride],–,0,–,–,–,–,–,12,-30,"Quadrant (FIG. 5b) [1, 13]: Q4; Fibrin % cell toxicity [3, 14]: 1%"
COc1ccc(C2CNC(=O)C2)cc1OC1CCCC1 (stereo not drawn) [Rolipram],Q4,0,0,11,11,–,–,–,–,–
Cc1c(NC(C)C)c(=O)n(-c2ccccc2)n1C [Ramifenazone],Q4,0,0,9,-11,–,–,–,–,–
C=CCc1ccc(O)c(OC)c1 [Eugenol],–,0,–,–,–,Q4,0,20,37,–
CC(=O)Oc1cccc(C(=O)O)c1OC(C)=O [Dipyrocetyl],–,0,–,–,–,Q4,1,7,-1,–
O=S(=O)([O-])CCCS(=O)(=O)[O-].[Na+].[Na+] [Eprodisate Disodium],–,–,–,–,–,Q4,1,–,–,"LPS % cell toxicity [2]: 0%; LPS % inhibition [4, 12]: 12%; Fibrin % inhibition ([5]; compounds at 10 μM): −3%"
CCOC(=O)/C=C(C)/C=C/C=C(C)/C=C/c1c(C)cc(OC)c(C)c1C [Etretinate],–,0,–,–,–,Q4,1,9,-19,–
COc1ccc2c(c1)[C@]13CCCC[C@@H]1[C@H](C2)N(C)CC3 [Dextromethorphan],–,0,–,–,–,Q4,1,–,–,"LPS % inhibition [4, 11]: 4% and −5%; Fibrin % inhibition ([5]; compounds at 10 μM, 10 µM): −18% and −20%"
O=C(Oc1cccc2cccnc12)c1ccccc1 [Benzoxiquine],–,0,–,–,–,–,–,14,-2,"Quadrant (FIG. 5b) [1, 13]: Q4; Fibrin % cell toxicity [3, 14]: 1%"
"COC(=O)CCc1ccc(OCC(O)CNC(C)C)cc1 (stereo not drawn) [Esmolol, Esmolol Hydrochloride]",–,–,–,–,–,Q4,1,–,–,"LPS % cell toxicity [2]: 0%; LPS % inhibition [4, 12]: 2%; Fibrin % inhibition ([5]; compounds at 10 μM): −15%"
C=C1/C(=C\C=C2/CCC[C@]3(C)[C@@H]([C@H](C)CCCC(C)C)CC[C@@H]23)C[C@@H](O)C[C@@H]1O [Alfacalcidol],–,0,–,–,–,–,–,4,-26,"Quadrant (FIG. 5b) [1, 13]: Q4; Fibrin % cell toxicity [3, 14]: 1%"
